Patent publication US20220232861A1, “ZINC COMPOUNDS IN FOOD IMMERSION APPLICATIONS” (SAFE FOODS CORPORATION, priority 2019, published 2022)
Where two headings read alike, the source gives them in different places.

Experiments:
Aerobic plate count [1] = conditions: Example 4; for Aerobic plate count: drums dipped 10 s, drip 60 s, control 7.9; for APC result versus control, in words: single treatments: 500 ppm zinc sulfate only (samples 6-10) or sulfuric acid pH 1.2 or less
Description: (§6) All rinsate samples collected were placed in a refrigerator overnight. The samples were analyzed for 3M Aerobic Plate Count (APC) Petrifilm™ (AOAC Official Method 990.12), and Enterobacteriaceae (EB) Petrifilm™ (AOAC Official Method 2003.01). The samples were recorded as counts, which were then converted to log10 CFU/mL for statistical analysis of the means.

Enterobacteriaceae [2] = conditions: Example 4; for Enterobacteriaceae: drums dipped 10 s, drip 60 s, control 4.9; for EB analysis result versus control, in words: single treatments: 500 ppm zinc sulfate only (samples 6-10) or sulfuric acid pH 1.2 or less
Description: as §6

Salmonella species = conditions: ppm = mg of zinc per L of treatment solution; cited from earlier work
Enterobacteriaceae [3] = conditions: Example 3; for Enterobacteriaceae: drums dipped 10 s, drip 60 s, control 2.8
Description: (§1) Drums (poultry) were purchased from a local retailer, frozen, and thawed for testing. The parts were allowed to sit at room temperature for 24 hours prior to testing. As a control, five drums (Sample IDs 1-5) were individually, aseptically rinsed (100 ml of rinsate).
(§2) Next, approximately 630 mL of 3,000 ppm zinc sulfate was added and manually agitated in 1 gallon of tap water in a 3-gallon bucket to yield a 500 ppm zinc sulfate solution. Five drums (Sample IDs 6-10) were fully submerged in the zinc sulfate solution, manually agitated for 10 seconds, then removed and allowed to drip for 60 seconds. The drums were individually, aseptically rinsed.
(§3) Next, 1 gallon of water and 4 ml of sulfuric acid were added to a bucket to yield a solution having a pH of 1.2. Five drums (Sample IDs 11-15) were fully submerged in the sulfuric acid solution, manually agitated for 10 seconds, then removed and allowed to drip for 60 seconds. The drums were individually, aseptically rinsed.
(§4) Lastly, 1 gallon of water and 630 mL of 3,000 ppm zinc sulfate/sulfuric acid solution were added to a bucket to yield a 500 ppm zinc sulfate/sulfuric acid solution having a pH of 1.2. Five drums (Sample IDs 16-20) were fully submerged in the zinc sulfate/sulfuric acid solution, manually agitated for 10 seconds, then removed and allowed to drip for 60 seconds. The drums were individually, aseptically rinsed.
(§5) All rinsate samples collected were placed in a refrigerator overnight. The samples were analyzed for 3M Aerobic Plate Count (APC) Petrifilm™ (AOAC Official Method 990.12), E. coli/Coliform (EC/CO) Petrifilm™ (AOAC Official Method 998.08), and Enterobacteriaceae (EB) Petrifilm™ (AOAC Official Method 2003.01). The samples were recorded as counts, which were then converted to log10 CFU/mL for statistical analysis of the means.

Aerobic plate count [4] = conditions: Example 3; for Aerobic plate count: drums dipped 10 s, drip 60 s, control 5.2
Description: as §1, §2, §3, §4, §5

[5] = 500 ppm zinc sulfate alone, Sample IDs 6-10
[6] = 1.2 pH sulfuric acid alone, Sample IDs 11-15

| Compound | Aerobic plate count, reduction from control (Aerobic plate count [1]; [5]) | Aerobic plate count (Aerobic plate count [1]; [5]) | APC result versus control, in words (Aerobic plate count [1]) | Enterobacteriaceae, reduction from control (Enterobacteriaceae [2]; [5]) | Enterobacteriaceae (Enterobacteriaceae [2]; [5]) | EB analysis result versus control, in words (Enterobacteriaceae [2]) | minimum inhibitory concentration (MIC) (Salmonella species) | Enterobacteriaceae, reduction from control (Enterobacteriaceae [3]; [5]) | Enterobacteriaceae (Enterobacteriaceae [3]; [5]) | Aerobic plate count, reduction from control (Aerobic plate count [4]; [5]) | Aerobic plate count (Aerobic plate count [4]; [5]) | Aerobic plate count, reduction from control (Aerobic plate count [1]; [6]) | Aerobic plate count (Aerobic plate count [1]; [6]) | Enterobacteriaceae, reduction from control (Enterobacteriaceae [2]; [6]) | Enterobacteriaceae (Enterobacteriaceae [2]; [6]) | Enterobacteriaceae, reduction from control (Enterobacteriaceae [3]; [6]) | Enterobacteriaceae (Enterobacteriaceae [3]; [6]) | Aerobic plate count, reduction from control (Aerobic plate count [4]; [6]) | Aerobic plate count (Aerobic plate count [4]; [6]) |
| --- | --- | --- | --- | --- | --- | --- | --- | --- | --- | --- | --- | --- | --- | --- | --- | --- | --- | --- | --- |
| O=S(=O)([O-])[O-].[Zn+2] [zinc sulfate] | 0.7 log10 CFU/ml | 7.2 log10 CFU/ml | statistically significant microbial reduction | 1.9 log10 CFU/ml | 3.3 log10 CFU/ml | statistically significant microbial reduction | about 0.25 ppm | 1.1 log10 CFU/ml | 1.7 log10 CFU/ml | 0.7 log10 CFU/ml | 4.5 log10 CFU/ml |  |  |  |  |  |  |  |  |
| O=S(=O)(O)O [sulfuric acid, reference compound] |  |  | statistically significant reductions |  |  | statistically significant reductions |  |  |  |  |  | 0.7 log10 CFU/ml | 7.2 log10 CFU/ml | 0.5 log10 CFU/ml | 4.4 log10 CFU/ml | 1.1 log10 CFU/ml | 1.7 log10 CFU/ml | 0.6 log10 CFU/ml | 4.6 log10 CFU/ml |
